Test [1] has as its target human P2X3 receptor (Homo sapiens (Human), UniProt P56373). Briefly: Intracellular calcium measurement (FLIPR, Fluo-4) of antagonist activity at human P2X3 receptors. The format is cell-based. Particulars: read-out: hP2X3 IC50. The procedure, abridged: (§1)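 Cells expressing human P2X3 or P2X2/3, loaded with Fluo-4, preincubated 30 min at 37° C. with compound (1% DMSO final), then challenged with α,β-Me-ATP at its EC80. Peak FLIPR fluorescence over 90 sec gave % response; IC50, maximal inhibition and Hill slope from triplicates.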
(In general: Calcium assays in cells follow changes in intracellular calcium, usually with a dye or a luminescent sensor.)

Test [2] has as its target human P2X2/3 receptor (Homo sapiens (Human), UniProt P56373+Q9UBL9). Briefly: Intracellular calcium measurement (FLIPR, Fluo-4) of antagonist activity at human P2X2/3 receptors. Format: cell-based. Particulars: human P2X2/3, FLIPR calcium assay, agonist α,β-Me-ATP; read-out: hP2X2/3 IC50. The gist of the method: as §1
Where [3] appears, read: human P2X3, FLIPR calcium assay, agonist α,β-Me-ATP.

Like-named read-outs stand apart in the source and are kept apart here.

Sequence of human P2X3 receptor (P56373 whole entry): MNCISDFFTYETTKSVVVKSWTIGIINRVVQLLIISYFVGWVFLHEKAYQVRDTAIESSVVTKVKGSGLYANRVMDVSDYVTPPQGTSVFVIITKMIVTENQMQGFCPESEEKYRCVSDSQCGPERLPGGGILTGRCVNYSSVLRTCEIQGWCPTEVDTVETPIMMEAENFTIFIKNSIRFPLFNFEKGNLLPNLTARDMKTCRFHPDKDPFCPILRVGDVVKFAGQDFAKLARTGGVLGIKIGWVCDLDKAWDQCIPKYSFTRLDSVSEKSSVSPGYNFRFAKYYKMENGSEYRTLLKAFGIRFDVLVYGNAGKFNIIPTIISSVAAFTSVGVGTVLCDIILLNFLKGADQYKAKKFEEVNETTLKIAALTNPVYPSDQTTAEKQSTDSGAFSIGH
Sequence of human P2X2/3 receptor (P56373 whole entry): as above
Sequence of human P2X2/3 receptor (Q9UBL9 whole entry): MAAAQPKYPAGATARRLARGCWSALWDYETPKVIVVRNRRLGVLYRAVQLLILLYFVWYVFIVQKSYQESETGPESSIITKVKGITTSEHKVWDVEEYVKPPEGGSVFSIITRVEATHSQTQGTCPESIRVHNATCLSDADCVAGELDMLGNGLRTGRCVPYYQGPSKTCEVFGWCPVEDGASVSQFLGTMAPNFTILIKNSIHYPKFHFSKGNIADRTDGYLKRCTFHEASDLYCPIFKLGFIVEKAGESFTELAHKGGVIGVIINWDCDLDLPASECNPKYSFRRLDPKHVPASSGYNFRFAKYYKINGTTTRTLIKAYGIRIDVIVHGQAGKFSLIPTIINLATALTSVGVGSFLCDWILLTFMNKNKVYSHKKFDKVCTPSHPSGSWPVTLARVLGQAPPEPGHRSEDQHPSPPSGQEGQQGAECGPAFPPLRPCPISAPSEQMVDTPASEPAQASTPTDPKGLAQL

Consider `Cc1cnc(-c2cc(OCC3CCOCC3)cc(C(=O)N[C@H](C)c3cnc(C(F)(F)F)nc3)c2)s1` [Example 98, 3-(5-Methyl-1,3-thiazol-2-yl)-5-(tetrahydro-2H-pyran-4-ylmethoxy)-N-[(1R)-1-[2-(trifluoromethyl)pyrimidin-5-yl]ethyl]benzamide], for which the IC50 in test [1] (setting [3]) came out at 0.001 µM; in test [2] it was 0.019 µM.
On to `Cc1ccc([C@@H](C)NC(=O)c2cc(OCC3CCOCC3)cc(-c3ncc(C)s3)c2)nn1` [Example 99, N-[(1R)-1-(6-Methylpyridazin-3-yl)ethyl]-3-(5-methyl-1,3-thiazol-2-yl)-5-(tetrahydro-2H-pyran-4-ylmethoxy)benzamide], for which the IC50 in test [1] (setting [3]) was 0.002 µM; in test [2], 0.027 µM.
For `Cc1cc(Oc2cc(C(=O)N[C@H](C)c3ccc(C)nn3)cc(-c3ncc(C)s3)c2)ccn1` [Example 100, N-[(1R)-1-(6-Methylpyridazin-3-yl)ethyl]-3-[(2-methylpyridin-4-yl)oxy]-5-(5-methyl-1,3-thiazol-2-yl)benzamide], the values for the IC50 in test [1] (setting [3]) and in test [2] were 0.006 µM and 0.016 µM, respectively.
Consider `Cc1cc(Oc2cc(C(=O)NCc3ccc(C)nn3)cc(-c3ncc(C)s3)c2)ccn1` [Example 101, N-[(6-Methylpyridazin-3-yl)methyl]-3-[(2-methylpyridin-4-yl)oxy]-5-(5-methyl-1,3-thiazol-2-yl)benzamide], for which the IC50 was 0.015 µM in test [1] (setting [3]) and 0.06 µM in test [2].
As for `Cc1cnc([C@@H](C)NC(=O)c2cc(Oc3ccnc(C)c3)cc(-c3ncc(C)s3)c2)cn1` [Example 102, N-[(1R)-1-(5-Methylpyrazin-2-yl)ethyl]-3-[(2-methylpyridin-4-yl)oxy]-5-(5-methyl-1,3-thiazol-2-yl)benzamide], the IC50 in test [1] (setting [3]) amounted to 0.01 µM; in test [2], 0.057 µM.
As for `Cc1cc(Oc2cc(C(=O)N[C@H](C)c3cnc(C(F)(F)F)nc3)cc(-c3ncc(C)s3)c2)ccn1` [Example 103, 3-[(2-Methylpyridin-4-yl)oxy]-5-(5-methyl-1,3-thiazol-2-yl)-N-{(1R)-1-[2-(trifluoromethyl)pyrimidin-5-yl]ethyl}benzamide], the values for the IC50 in test [1] (setting [3]) and in test [2] were 0.002 µM and 0.014 µM, respectively.
`Cc1cnc(CNC(=O)c2cc(Oc3ccnc(C)c3)cc(-c3ncc(C)s3)c2)cn1` [Example 104, N-[(5-Methylpyrazin-2-yl)methyl]-3-[(2-methylpyridin-4-yl)oxy]-5-(5-methyl-1,3-thiazol-2-yl)benzamide]: the IC50 was found to be 0.051 µM in test [1] (setting [3]) and 0.377 µM in test [2].
On to `Cc1cc(Oc2cc(C(=O)N[C@H](C)c3cnc(C)nc3)cc(-c3ncc(C)s3)c2)ccn1` [Example 106, 3-[(2-methylpyridin-4-yl)oxy]-N-[(1R)-1-(2-methylpyrimidin-5-yl)ethyl]-5-(5-methyl-1,3-thiazol-2-yl)benzamide], for which the IC50 in test [1] (setting [3]) is 0.016 µM; in test [2], 0.041 µM.
`Cc1ccc([C@@H](C)NC(=O)c2cc(Oc3ccnc(C)c3)cc(-c3ncc(C)s3)c2)cn1` [Example 107, N-[(1R)-1-(6-methylpyridin-3-yl)ethyl]-3-[(2-methylpyridin-4-yl)oxy]-5-(5-methyl-1,3-thiazol-2-yl)benzamide]: the IC50 is 0.009 µM in test [1] (setting [3]) and 0.017 µM in test [2].
The like results for `Cc1ccc(Oc2cc(C(=O)N[C@H](C)c3cnc(C(F)(F)F)nc3)cc(-c3ncc(C)s3)c2)cn1` [Example 108, 3-[(6-Methylpyridin-3-yl)oxy]-5-(5-methyl-1,3-thiazol-2-yl)-N-{(1R)-1-[2-(trifluoromethyl)pyrimidin-5-yl]ethyl}benzamide] were, in that order, 0.011 µM and 0.083 µM.
As for `Cc1cnc([C@@H](C)NC(=O)c2cc(Oc3nnc(C)s3)cc(-c3ncc(C)s3)c2)cn1` [Example 109, N-[(1R)-1-(5-Methylpyrazin-2-yl)ethyl]-3-[(5-methyl-1,3,4-thiadiazol-2-yl)oxy]-5-(5-methyl-1,3-thiazol-2-yl)benzamide], the figures for the IC50 in test [1] (setting [3]) and in test [2] were 0.235 µM and 2.41 µM, respectively.
Turning to `Cc1ccc([C@@H](C)NC(=O)c2cc(Oc3nnc(C)s3)cc(-c3ncc(C)s3)c2)nn1` [Example 110, N-[(1R)-1-(6-Methylpyridazin-3-yl)ethyl]-3-[(5-methyl-1,3,4-thiadiazol-2-yl)oxy]-5-(5-methyl-1,3-thiazol-2-yl)benzamide], the IC50 in test [1] (setting [3]) is 0.114 µM; in test [2] it was 1.45 µM.
For `Cc1cnc(-c2cc(Oc3nnc(C)s3)cc(C(=O)N[C@H](C)c3cnc(C(F)(F)F)nc3)c2)s1` [Example 111, 3-[(5-Methyl-1,3,4-thiadiazol-2-yl)oxy]-5-(5-methyl-1,3-thiazol-2-yl)-N-[(1R)-1-[2-(trifluoromethyl)pyrimidin-5-yl]ethyl]benzamide] the same measures were 0.016 µM and 0.38 µM.
`Cc1cnc([C@@H](C)NC(=O)c2cc(Oc3nccs3)cc(-c3ncc(C)s3)c2)cn1` [Example 112, N-[(1R)-1-(5-Methylpyrazin-2-yl)ethyl]-3-(5-methyl-1,3-thiazol-2-yl)-5-(1,3-thiazol-2-yloxy)benzamide]: the IC50 in test [1] was determined as 0.061 µM; in test [2] it was 0.772 µM.
With `Cc1ccc([C@@H](C)NC(=O)c2cc(Oc3nccs3)cc(-c3ncc(C)s3)c2)nn1` [Example 113, N-[(1R)-1-(6-Methylpyridazin-3-yl)ethyl]-3-(5-methyl-1,3-thiazol-2-yl)-5-(1,3-thiazol-2-yloxy)benzamide], the IC50 was determined as 0.043 µM in test [1] (setting [3]) and 0.387 µM in test [2].
In the case of `Cc1ccc([C@@H](C)NC(=O)c2cc(Oc3nccs3)cc(-c3ncc(C)s3)c2)cn1` [Example 114, N-[(1R)-1-(6-Methylpyridin-3-yl)ethyl]-3-(5-methyl-1,3-thiazol-2-yl)-5-(1,3-thiazol-2-yloxy)benzamide], the IC50 in test [1] (setting [3]) amounted to 0.038 µM; in test [2], 0.414 µM.
As for `COC(C)(C)COc1cc(C(=O)N[C@H](C)c2ccc(Cl)cn2)cc(-c2ncc(Cl)s2)c1` [Example 115, N-[(1R)-1-(5-Chloropyridin-2-yl)ethyl]-3-(5-chloro-1,3-thiazol-2-yl)-5-(2-methoxy-2-methylpropoxy)benzamide], the IC50 worked out at 0.015 µM in test [1] (setting [3]) and 0.187 µM in test [2].
In the case of `COC(C)(C)COc1cc(C(=O)N[C@H](C)c2cnc(C(F)(F)F)nc2)cc(-c2ncc(Cl)s2)c1` [Example 116, 3-(5-Chloro-1,3-thiazol-2-yl)-5-(2-methoxy-2-methylpropoxy)-N-{(1R)-1-[2-(trifluoromethyl)pyrimidin-5-yl]ethyl}benzamide], the IC50 was 0.21 µM in test [1] (setting [3]) and 6.43 µM in test [2].
For `COC(C)(C)COc1cc(C(=O)N[C@H](C)c2cnc(C)cn2)cc(-c2ncc(Cl)s2)c1` [Example 117, 3-(5-Chloro-1,3-thiazol-2-yl)-5-(2-methoxy-2-methylpropoxy)-N-[(1R)-1-(5-methylpyrazin-2-yl)ethyl]benzamide] the same measures were 0.036 µM and 0.883 µM.
Turning to `Cc1ccc(CNC(=O)c2cc(OCC3CCOCC3)cc(-c3ncc(C(F)(F)F)s3)c2)nn1` [Example 118, N-[(6-Methylpyridazin-3-yl)methyl]-3-(tetrahydro-2H-pyran-4-ylmethoxy)-5-[5-(trifluoromethyl)-1,3-thiazol-2-yl]benzamide], the IC50 turned out to be 0.198 µM in test [1] (setting [3]) and 1.13 µM in test [2].
Consider `Cc1ccc(CNC(=O)c2cc(OCC3CCOCC3)cc(-c3ncc(C4CCC4)s3)c2)nn1` [Example 119, 3-(5-Cyclobutyl-1,3-thiazol-2-yl)-N-[(6-methylpyridazin-3-yl)methyl]-5-(tetrahydro-2H-pyran-4-ylmethoxy)benzamide], for which the IC50 in test [1] (setting [3]) was found to be 0.024 µM; in test [2], 0.19 µM.
For `C[C@@H](NC(=O)c1cc(OCC2CCOCC2)cc(-c2ncc(C3CCC3)s2)c1)c1cnc(C(F)(F)F)nc1` [Example 120, 3-(5-Cyclobutyl-1,3-thiazol-2-yl)-5-(tetrahydro-2H-pyran-4-ylmethoxy)-N-{(1R)-1-[2-(trifluoromethyl)pyrimidin-5-yl]ethyl}benzamide] the same measures were 0.014 µM and 0.104 µM.
Consider `Cc1ccc(CNC(=O)c2cc(OC[C@H]3CCOC3)cc(-c3ncc(C4CCC4)s3)c2)nn1` [Example 122, 3-(5-Cyclobutyl-1,3-thiazol-2-yl)-N-[(6-methylpyridazin-3-yl)methyl]-5-[(3S)-tetrahydrofuran-3-ylmethoxy]benzamide], for which the IC50 in test [1] (setting [3]) came out at 0.106 µM; in test [2], 1.17 µM.
For `C[C@@H](NC(=O)c1cc(OC[C@H]2CCOC2)cc(-c2ncc(C3CCC3)s2)c1)c1cnc(C(F)(F)F)nc1` [Example 123, 3-(5-Cyclobutyl-1,3-thiazol-2-yl)-5-[(3S)-tetrahydrofuran-3-ylmethoxy]-N-{(1R)-1-[2-(trifluoromethyl)pyrimidin-5-yl]ethyl}benzamide] the same measures were 0.046 µM and 0.164 µM.
Consider `Cc1ncc([C@@H](C)NC(=O)c2cc(OCC3CCOCC3)cc(-c3ncc(C4CCC4)s3)c2)cn1` [Example 124, 3-(5-Cyclobutyl-1,3-thiazol-2-yl)-N-[(1R)-1-(2-methylpyrimidin-5-yl)ethyl]-5-(tetrahydro-2H-pyran-4-ylmethoxy)benzamide], for which the IC50 is 0.027 µM in test [1] (setting [3]) and 0.165 µM in test [2].
For `CCc1cnc(-c2cc(OCC3CCOCC3)cc(C(=O)N[C@H](C)c3cnc(C)nc3)c2)s1` [Example 125, 3-(5-Ethyl-1,3-thiazol-2-yl)-N-[(1R)-1-(2-methylpyrimidin-5-yl)ethyl]-5-(tetrahydro-2H-pyran-4-ylmethoxy)benzamide] the same measures were 0.003 µM and 0.027 µM.
In the case of `Cc1ncc([C@@H](C)NC(=O)c2cc(OCC3CCOCC3)cc(-c3ncc(C(C)C)s3)c2)cn1` [Example 126, N-[(1R)-1-(2-Methylpyrimidin-5-yl)ethyl]-3-[5-(propan-2-yl)-1,3-thiazol-2-yl]-5-(tetrahydro-2H-pyran-4-ylmethoxy)benzamide], the IC50 in test [1] (setting [3]) came out at 0.034 µM; in test [2] it was 0.532 µM.

These data come from patent publication US10174016B2 (BAYER AKTIENGESELLSCHAFT, priority 2014, dated 2019).
